{"source": "patent US20240279278A1", "about": "“NMU RECEPTOR 2 AGONISTS” (Boehringer Ingelheim International GmbH, priority 2023, published 2024)", "key": {"human NMUR2 receptor": {"target": "human NMUR2 receptor (Homo sapiens, UniProt Q9GZQ4)", "sequence (Q9GZQ4 whole entry)": "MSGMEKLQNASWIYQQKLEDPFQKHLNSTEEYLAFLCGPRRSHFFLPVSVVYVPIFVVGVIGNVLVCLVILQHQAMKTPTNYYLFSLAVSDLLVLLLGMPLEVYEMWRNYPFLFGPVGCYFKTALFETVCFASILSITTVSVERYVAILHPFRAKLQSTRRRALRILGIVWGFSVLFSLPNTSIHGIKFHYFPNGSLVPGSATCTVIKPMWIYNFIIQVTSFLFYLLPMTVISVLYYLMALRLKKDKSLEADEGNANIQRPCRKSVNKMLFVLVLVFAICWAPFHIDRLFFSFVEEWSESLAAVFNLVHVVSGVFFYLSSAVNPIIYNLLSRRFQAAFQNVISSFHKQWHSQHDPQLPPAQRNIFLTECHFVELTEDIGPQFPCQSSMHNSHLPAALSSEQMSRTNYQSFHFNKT", "experiment": "IP1 Gq HTRF assay, activation of human NMUR2 in buffer", "type": "cell-based", "set-up": "expressed in transfected cells; host or cells: CHO-K1", "details": "selectivity for NMUR2 over NMUR1 from IP1 assay in buffer (Example 3)", "how_it_was_run": "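IP-One HTRF competition (665/620 nm ratio) read after 1 h agonist exposure at 37 °C in pH 7.4 HEPES/HBSS stimulation buffer containing 50 mM LiCl, 0.1% BSA, 1% DMSO. Cells: CHO-K1 stably expressing human NMUR2 or NMUR1. EC50 by 4-parameter nonlinear regression of 8-point curves.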"}, "in vivo": {"experiment": "in vivo", "set-up": "species or system NMRI mice", "details": "male, NMRI, mouse, iv", "method": "Example 5: Pharmacokinetics Intravenous (iv) PK in Mouse Pharmacokinetic parameters of the test compounds were determined after intravenous administration to Naval Medical Research Institute (NMRI) mice. Male NMRI mice were obtained either from Charles River (Germany) or from Janvier (France) weighing approximately 30 g to 40 g. Mice were housed in standard cages with light cycle of 12-hour dark and 12-hour light. Standardized food and water were offered ad libitum to the animals during the whole experimental period. The respective peptide was dissolved in 50 mM phosphate buffer (pH 7.4) containing 3.5% mannitol. Intravenous doses of 30 nmol/kg were given via a tail vein. Serial blood samples were collected from the vena saphena into tubes containing EDTA as anticoagulant at different time points up to 48 hours post dosing. After centrifugation for approximately 5 minutes, plasma samples were transferred to 96-well Polymerase Chain Reaction (PCR) plates, immediately frozen and kept at approximately −20° C. until analyzed for plasma concentration by liquid chromatography mass spectrometry (LC-MS/MS). Individual plasma concentration-time profiles were analyzed by a non-compartmental approach, and the resulting pharmacokinetic parameters were determined."}}, "note": "Starred links: 1 amine or outer side, 2 acyl side, 3 side chain; linkers in the order of their positions; H or OH if unused. Non-standard residues stand in square brackets, D forms with d. Residues, ends and D or L forms follow the SMILES beside them. *: point of attachment. Pipz(1-CH2CO,4-CH2CH2NH) = O=C(CN1CCN(CCN[*:1])CC1)[*:2]; γGlu = O=C(O)[C@H](CCC(=O)[*:2])N[*:1]; Stearoyl = CCCCCCCCCCCCCCCCCC(=O)*; X1 = CN(CC(=O)C(=O)[*:2])[*:1]; NMeL = CN[C@@H](CC(C)C)C(=O)O; Nle = CCCC[C@H](N)C(=O)O; Orn = NCCC[C@H](N)C(=O)O; Sar = CNCC(=O)O"}
{"smiles": "CCCCCCCCCCCCCCCCCC(=O)N[C@@H](CCC(=O)N[C@@H](CCC(=O)N[C@@H](CCC(=O)N(C)CC(=O)N(C)CC(=O)N(C)CC(=O)N(C)CC(=O)N(C)CC(=O)N(C)CC(=O)N(C)CC(=O)N(C)CC(=O)N(C)CC(=O)N(C)CC(=O)N(C)CC(=O)N(C)CC(=O)N(C)CC(=O)N(C)CC(=O)N(C)CC(=O)NCCN1CCN(CC(=O)N[C@@H](Cc2ccc(O)cc2)C(=O)N[C@@H](Cc2ccccc2)C(=O)N(C)[C@@H](CC(C)C)C(=O)N[C@@H](CCCC)C(=O)N[C@@H](CCCNC(=N)N)C(=O)N2CCC[C@H]2C(=O)N[C@@H](CCCNC(=N)N)C(=O)NCC(N)=O)CC1)C(=O)O)C(=O)O)C(=O)O", "note": "[Ref. 1, C18A-gGlu3-Sar15-AEPipAc-Tyr-Phe-NMeLeu-Nle-Arg-Pro-Arg-Gly-NH2, reference compound] (HELM PEPTIDE1{[CCCCCCCCCCCCCCCCCC(=O)[*:2]].[gGlu].[gGlu].[gGlu].[Sar].[Sar].[Sar].[Sar].[Sar].[Sar].[Sar].[Sar].[Sar].[Sar].[Sar].[Sar].[Sar].[Sar].[Sar].[O=C(CN1CCN(CCN[*:1])CC1)[*:2]].Y.F.[meL].[Nle].R.P.R.G.[am]}$$$$V2.0)", "values": [{"measurement": "EC50 (hNMUR1)/EC50 (hNMUR2)", "setting": "human NMUR2 receptor", "result": 4.3}, {"measurement": "MRT", "setting": "in vivo", "result": 0.8, "unit": "h"}]}
{"smiles": "CCCC[C@H](NC(=O)[C@H](CC(C)C)N(C)C(=O)[C@H](Cc1ccccc1)NC(=O)[C@H](Cc1ccc(O)cc1)NC(=O)CN1CCN(CCNC(=O)CN(C)C(=O)CN(C)C(=O)CN(C)C(=O)CN(C)C(=O)CN(C)C(=O)CN(C)C(=O)CN(C)C(=O)CN(C)C(=O)CN(C)C(=O)CN(C)C(=O)CN(C)C(=O)CN(C)C(=O)CN(C)C(=O)CN(C)C(=O)CN(C)C(=O)CC[C@H](NC(=O)CC[C@H](NC(=O)CC[C@H](NC(=O)CCCCCCCCCCCCCCCCC(=O)O)C(=O)O)C(=O)O)C(=O)O)CC1)C(=O)N[C@@H](CCCNC(=N)N)C(=O)N1CCC[C@H]1C(=O)N[C@@H](CCCNC(=N)N)C(=O)NCC(N)=O", "note": "[Ref. 2, C18DA-gGlu3-Sar15-AEPipAc-Tyr-Phe-Leu-Nle-Arg-Pro-Arg-Gly-NH2, reference compound] (HELM PEPTIDE1{[O=C(O)CCCCCCCCCCCCCCCCC(=O)[*:2]].[gGlu].[gGlu].[gGlu].[Sar].[Sar].[Sar].[Sar].[Sar].[Sar].[Sar].[Sar].[Sar].[Sar].[Sar].[Sar].[Sar].[Sar].[Sar].[O=C(CN1CCN(CCN[*:1])CC1)[*:2]].Y.F.[meL].[Nle].R.P.R.G.[am]}$$$$V2.0)", "values": [{"measurement": "MRT", "setting": "in vivo", "result": 7.9, "unit": "h"}]}
{"smiles": "CCCCCCCCCCCCCCCCCCCC(=O)N[C@@H](CCC(=O)N[C@@H](CCC(=O)N[C@@H](CCC(=O)N(C)CC(=O)N(C)CC(=O)N(C)CC(=O)N(C)CC(=O)N(C)CC(=O)N(C)CC(=O)N(C)CC(=O)N(C)CC(=O)N(C)CC(=O)N(C)CC(=O)N(C)CC(=O)N(C)CC(=O)N(C)CC(=O)N(C)CC(=O)N(C)CC(=O)NCCN1CCN(CC(=O)N[C@@H](Cc2ccc(O)cc2)C(=O)N[C@@H](Cc2ccccc2)C(=O)N(C)[C@@H](CC(C)C)C(=O)N[C@@H](CCCC)C(=O)N[C@@H](CCCNC(=N)N)C(=O)N2CCC[C@H]2C(=O)N[C@@H](CCCNC(=N)N)C(=O)NCC(N)=O)CC1)C(=O)O)C(=O)O)C(=O)O", "note": "[Ref. 3, C20A-gGlu3-Sar15-AEPipAc-Tyr-Phe-NMeLeu-Nle-Orn-Pro-Arg-Gly-NH2, reference compound] (HELM PEPTIDE1{[CCCCCCCCCCCCCCCCCCCC(=O)[*:2]].[gGlu].[gGlu].[gGlu].[Sar].[Sar].[Sar].[Sar].[Sar].[Sar].[Sar].[Sar].[Sar].[Sar].[Sar].[Sar].[Sar].[Sar].[Sar].[O=C(CN1CCN(CCN[*:1])CC1)[*:2]].Y.F.[meL].[Nle].R.P.R.G.[am]}$$$$V2.0)", "values": [{"measurement": "EC50 (hNMUR1)/EC50 (hNMUR2)", "setting": "human NMUR2 receptor", "result": 6.1}, {"measurement": "MRT", "setting": "in vivo", "result": 1.7, "unit": "h"}]}
{"smiles": "CCCC[C@H](NC(=O)[C@H](CC(C)C)N(C)C(=O)[C@H](Cc1ccccc1)NC(=O)[C@H](Cc1ccc(O)cc1)NC(=O)CN1CCN(CCNC(=O)CN(C)C(=O)CN(C)C(=O)CN(C)C(=O)CN(C)C(=O)CN(C)C(=O)CN(C)C(=O)CN(C)C(=O)CN(C)C(=O)CN(C)C(=O)CN(C)C(=O)CN(C)C(=O)CN(C)C(=O)CN(C)C(=O)CN(C)C(=O)CN(C)C(=O)CC[C@H](NC(=O)CC[C@H](NC(=O)CC[C@H](NC(=O)CCCCCCCCCCCCCCCCCCC(=O)O)C(=O)O)C(=O)O)C(=O)O)CC1)C(=O)N[C@@H](CCCNC(=N)N)C(=O)N1CCC[C@H]1C(=O)N[C@@H](CCCNC(=N)N)C(=O)NCC(N)=O", "note": "[Ref. 4, C20DA-gGlu3-Sar15-AEPipAc-Tyr-Phe-Leu-Nle-Orn-Pro-Arg-Gly-NH2, reference compound] (HELM PEPTIDE1{[O=C(O)CCCCCCCCCCCCCCCCCCC(=O)[*:2]].[gGlu].[gGlu].[gGlu].[Sar].[Sar].[Sar].[Sar].[Sar].[Sar].[Sar].[Sar].[Sar].[Sar].[Sar].[Sar].[Sar].[Sar].[Sar].[O=C(CN1CCN(CCN[*:1])CC1)[*:2]].Y.F.[meL].[Nle].R.P.R.G.[am]}$$$$V2.0)", "values": [{"measurement": "EC50 (hNMUR1)/EC50 (hNMUR2)", "setting": "human NMUR2 receptor", "result": 25.0}, {"measurement": "MRT", "setting": "in vivo", "result": 22.5, "unit": "h"}]}
{"smiles": "CCCCCCCCCCCCCCCCCC(=O)N[C@@H](CCC(=O)N[C@@H](CCC(=O)N[C@@H](CCC(=O)N(C)CC(=O)C(=O)N[C@@H](CCC(=O)N(C)CC(=O)N(C)CC(=O)N(C)CC(=O)N(C)CC(=O)N(C)CC(=O)N(C)CC(=O)N(C)CC(=O)N(C)CC(=O)N(C)CC(=O)NCCN1CCN(CC(=O)N[C@@H](Cc2ccc(O)cc2)C(=O)N[C@@H](Cc2ccccc2)C(=O)N(C)[C@@H](CC(C)C)C(=O)N[C@@H](CCCC)C(=O)N[C@@H](CCCN)C(=O)N2CCC[C@H]2C(=O)N[C@@H](CCCNC(=N)N)C(=O)NCC(N)=O)CC1)C(=O)O)C(=O)O)C(=O)O)C(=O)O", "note": "[Ref. 5, C18A-gGlu3-Sar12-AEPipAc-Tyr-Phe-NMeLeu-Nle-Orn-Pro-Arg-Gly-NH2, reference compound] ({Stearoyl-γGlu-γGlu-γGlu}-[X1][γGlu][Sar][Sar][Sar][Sar][Sar][Sar][Sar][Sar][Sar][Pipz(1-CH2CO,4-CH2CH2NH)]YF[NMeL][Nle][Orn]PRG-NH2)", "values": [{"measurement": "EC50 (hNMUR1)/EC50 (hNMUR2)", "setting": "human NMUR2 receptor", "result": 7.9}, {"measurement": "MRT", "setting": "in vivo", "result": 2.2, "unit": "h"}]}
{"smiles": "CCCC[C@H](NC(=O)[C@H](CC(C)C)NC(=O)[C@H](Cc1ccccc1)NC(=O)[C@H](Cc1ccc(O)cc1)NC(=O)CN1CCN(CCNC(=O)CN(C)C(=O)CN(C)C(=O)CN(C)C(=O)CN(C)C(=O)CN(C)C(=O)CN(C)C(=O)CN(C)C(=O)CN(C)C(=O)CN(C)C(=O)CC[C@H](NC(=O)C(=O)CN(C)C(=O)CC[C@H](NC(=O)CC[C@H](NC(=O)CC[C@H](NC(=O)CCCCCCCCCCCCCCCCC(=O)O)C(=O)O)C(=O)O)C(=O)O)C(=O)O)CC1)C(=O)N[C@@H](CCCN)C(=O)N1CCC[C@H]1C(=O)N[C@@H](CCCNC(=N)N)C(=O)NCC(N)=O", "note": "[Ref. 6, C18DA-gGlu3-Sar12-AEPipAc-Tyr-Phe-Leu-Nle-Orn-Pro-Arg-Gly-NH2, reference compound]", "values": [{"measurement": "EC50 (hNMUR1)/EC50 (hNMUR2)", "setting": "human NMUR2 receptor", "result": 32.4}, {"measurement": "MRT", "setting": "in vivo", "result": 4.2, "unit": "h"}]}
